A value given as a limit tells only on which side of the number the result lay.

Holding throughout (format): cell-based
Experiment [1] has as its target T1, SMARCA2 (Homo sapiens, UniProt P51531). Kind of experiment: MSD SMARCA2 degradation in A549 cell line. Set-up: endogenous in cells. Particulars: 24 h; for Dmax: A549, A549 cells; for DC50: A549 cells, read-out: SMARCA2 MSD A549 degradation 24 h: Average external-Abs DC50. The essentials: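 A549 cells treated 24 h with compound, 3-fold series 1000 nM down to 0.152 nM plus DMSO. RIPA lysates captured on MSD plates, probed with rabbit anti-SMARCA2/BRM (1 µg/ml) then SULFO-TAG anti-rabbit, electrochemiluminescence read. DC50 and 24 h Dmax reported as letter bins.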

The target of another experiment is T2, SMARCA4 (Homo sapiens, UniProt P51532).
T2 construct: SMARCA2 and SMARCA4 protein degradation in MV4-11 cells; endogenous in cells; host or cells: MV4-11
The experiment in a line: SMARCA4 Western blot MV4-11 degradation. Particulars: 24 h; for Dmax: MV4-11, MV4-11 cells, read-out: SMARCA4 MSD MV411 degradation 24 h: average Dmax %; for DC50: MV4-11 cells, read-out: SMARCA4 MSD MV411 degradation 24 h: Mean external-Abs DC50. For orientation: In western blotting, separated proteins are transferred to a membrane and probed.

Experiment [2] addresses T1, SMARCA2. The experiment in a line: SMARCA2 Western blot MV4-11 degradation. Set-up: SMARCA2 and SMARCA4 protein degradation in MV4-11 cells; endogenous in cells; host or cells: MV4-11. Particulars: 24 h; for Dmax: MV4-11, MV4-11 cells, read-out: SMARCA2 MSD MV411 degradation 24 h: average Dmax %; for DC50: MV4-11 cells, read-out: SMARCA2 MSD MV411 degradation 24 h: Mean external-Abs DC50.

T2 sequence (P51532 whole entry): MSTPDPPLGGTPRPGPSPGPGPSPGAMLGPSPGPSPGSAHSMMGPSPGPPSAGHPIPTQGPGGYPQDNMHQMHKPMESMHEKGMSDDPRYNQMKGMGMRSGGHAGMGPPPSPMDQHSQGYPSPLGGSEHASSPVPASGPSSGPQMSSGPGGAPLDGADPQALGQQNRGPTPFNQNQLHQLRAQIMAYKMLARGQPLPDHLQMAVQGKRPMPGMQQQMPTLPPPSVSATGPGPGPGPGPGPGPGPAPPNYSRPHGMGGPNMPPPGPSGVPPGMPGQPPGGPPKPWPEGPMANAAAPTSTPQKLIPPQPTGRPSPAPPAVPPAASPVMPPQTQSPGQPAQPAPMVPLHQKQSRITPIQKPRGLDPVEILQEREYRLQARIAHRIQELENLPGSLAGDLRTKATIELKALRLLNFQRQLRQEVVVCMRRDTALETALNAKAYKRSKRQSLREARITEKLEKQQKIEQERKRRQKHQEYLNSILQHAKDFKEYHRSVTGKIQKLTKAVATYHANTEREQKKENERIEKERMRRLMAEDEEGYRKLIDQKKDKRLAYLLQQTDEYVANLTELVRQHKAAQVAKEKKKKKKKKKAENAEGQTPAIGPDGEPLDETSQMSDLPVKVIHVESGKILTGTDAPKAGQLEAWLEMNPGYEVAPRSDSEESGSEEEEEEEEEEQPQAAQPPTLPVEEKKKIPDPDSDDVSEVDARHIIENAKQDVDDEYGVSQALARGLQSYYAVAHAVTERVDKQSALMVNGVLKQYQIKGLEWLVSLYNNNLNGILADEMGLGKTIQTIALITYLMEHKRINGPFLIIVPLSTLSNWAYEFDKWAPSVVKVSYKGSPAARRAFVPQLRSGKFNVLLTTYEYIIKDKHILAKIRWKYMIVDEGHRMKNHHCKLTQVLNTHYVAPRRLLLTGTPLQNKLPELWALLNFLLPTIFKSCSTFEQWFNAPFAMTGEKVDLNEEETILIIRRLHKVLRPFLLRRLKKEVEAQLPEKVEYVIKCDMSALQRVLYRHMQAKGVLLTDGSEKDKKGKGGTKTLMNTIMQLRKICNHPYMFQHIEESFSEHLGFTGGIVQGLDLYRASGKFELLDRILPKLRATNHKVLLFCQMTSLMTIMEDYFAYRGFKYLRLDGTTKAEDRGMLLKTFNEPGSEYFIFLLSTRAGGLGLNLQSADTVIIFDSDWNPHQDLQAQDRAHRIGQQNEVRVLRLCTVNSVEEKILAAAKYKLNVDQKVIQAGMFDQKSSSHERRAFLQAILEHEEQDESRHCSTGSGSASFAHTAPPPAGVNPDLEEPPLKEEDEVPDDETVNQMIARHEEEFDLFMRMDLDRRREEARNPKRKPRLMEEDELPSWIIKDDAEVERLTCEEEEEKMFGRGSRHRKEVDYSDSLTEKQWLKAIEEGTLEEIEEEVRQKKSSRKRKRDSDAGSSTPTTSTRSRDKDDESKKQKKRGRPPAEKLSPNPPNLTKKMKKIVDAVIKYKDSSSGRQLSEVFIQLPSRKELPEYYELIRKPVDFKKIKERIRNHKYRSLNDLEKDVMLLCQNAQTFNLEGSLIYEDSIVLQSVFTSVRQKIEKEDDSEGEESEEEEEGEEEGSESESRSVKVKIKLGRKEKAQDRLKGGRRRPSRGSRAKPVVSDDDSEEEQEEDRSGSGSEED
T1 sequence (P51531 whole entry): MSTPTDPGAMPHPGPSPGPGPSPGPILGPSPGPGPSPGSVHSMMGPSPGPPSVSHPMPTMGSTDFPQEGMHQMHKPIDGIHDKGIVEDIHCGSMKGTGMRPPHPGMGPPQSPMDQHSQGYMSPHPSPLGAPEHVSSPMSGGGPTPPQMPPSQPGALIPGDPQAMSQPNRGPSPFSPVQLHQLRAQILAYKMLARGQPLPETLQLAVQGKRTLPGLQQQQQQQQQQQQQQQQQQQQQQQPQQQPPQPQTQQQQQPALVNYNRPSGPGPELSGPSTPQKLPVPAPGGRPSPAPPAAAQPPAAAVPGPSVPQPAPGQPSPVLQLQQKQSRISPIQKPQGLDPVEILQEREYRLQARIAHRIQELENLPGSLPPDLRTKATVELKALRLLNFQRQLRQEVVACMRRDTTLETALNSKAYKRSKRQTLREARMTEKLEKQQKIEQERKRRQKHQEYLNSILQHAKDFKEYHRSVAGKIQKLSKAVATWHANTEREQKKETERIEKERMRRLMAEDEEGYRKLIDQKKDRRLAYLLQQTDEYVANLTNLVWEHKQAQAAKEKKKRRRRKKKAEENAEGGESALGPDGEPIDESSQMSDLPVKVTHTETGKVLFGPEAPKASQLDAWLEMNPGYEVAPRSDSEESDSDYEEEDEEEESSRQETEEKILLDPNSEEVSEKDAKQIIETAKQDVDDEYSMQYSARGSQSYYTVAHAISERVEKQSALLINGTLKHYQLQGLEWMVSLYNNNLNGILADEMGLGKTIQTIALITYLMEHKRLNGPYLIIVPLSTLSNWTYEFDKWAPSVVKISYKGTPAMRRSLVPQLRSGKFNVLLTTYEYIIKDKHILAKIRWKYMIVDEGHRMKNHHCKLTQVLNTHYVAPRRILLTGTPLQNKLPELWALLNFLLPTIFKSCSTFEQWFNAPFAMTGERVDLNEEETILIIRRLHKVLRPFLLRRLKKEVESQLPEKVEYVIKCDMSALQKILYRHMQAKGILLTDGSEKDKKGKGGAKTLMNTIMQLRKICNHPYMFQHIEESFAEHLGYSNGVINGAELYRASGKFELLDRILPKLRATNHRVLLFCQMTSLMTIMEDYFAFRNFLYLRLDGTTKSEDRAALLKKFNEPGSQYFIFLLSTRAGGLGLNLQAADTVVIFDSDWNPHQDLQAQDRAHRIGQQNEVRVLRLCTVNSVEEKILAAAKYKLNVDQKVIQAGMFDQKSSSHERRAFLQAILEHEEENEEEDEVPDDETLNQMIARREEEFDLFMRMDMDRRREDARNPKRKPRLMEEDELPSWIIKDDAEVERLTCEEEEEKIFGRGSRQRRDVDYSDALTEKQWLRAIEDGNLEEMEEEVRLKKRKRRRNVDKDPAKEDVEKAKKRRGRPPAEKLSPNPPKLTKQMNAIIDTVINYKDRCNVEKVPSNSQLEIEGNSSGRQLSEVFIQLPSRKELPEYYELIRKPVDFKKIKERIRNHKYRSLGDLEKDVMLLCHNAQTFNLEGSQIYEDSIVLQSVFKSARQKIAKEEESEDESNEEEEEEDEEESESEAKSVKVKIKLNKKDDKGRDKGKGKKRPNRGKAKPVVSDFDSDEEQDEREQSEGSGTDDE

The Dmax is the largest share of the target that was removed. For orientation: DC50 means the concentration at which degradation of the target reaches its halfway point. In the case of `Cc1ncsc1-c1ccc(CNC(=O)[C@@H]2C[C@@H](O)CN2C(=O)[C@@H](NC(=O)CN2CC3(C2)CN(C2CCC(c4cnc(N5C6CCC5CN(c5cc(-c7ccccc7O)nnc5N)C6)nc4)CC2)C3)C(C)(C)C)cc1` (stereo partly drawn) [I-76, (2S,4R)-1-((2S)-2-(2-(6-(4-(2-(3-(3-amino-6-(2-hydroxyphenyl)pyridazin-4-yl)-3,8-diazabicyclo[3.2.1]octan-8-yl)pyrimidin-5-yl)cyclohexyl)-2,6-diazaspiro[3.3]heptan-2-yl)acetamido)-3,3-dimethylbutanoyl)-4-hydroxy-N-(4-(4-methylthiazol-5-yl)benzyl)pyrrolidine-2-carboxamide], the greatest degradation seen (Dmax) on SMARCA2 [1], on SMARCA4 and at SMARCA2 [2] was over 90% each time. The DC50 on SMARCA2 [1] is 0.501 to 1 µM; on SMARCA4, under 0.1 µM; on SMARCA2 [2], under 0.1 µM.
On to `Cc1ncsc1-c1ccc(CNC(=O)[C@@H]2C[C@H](O)CN2C(=O)[C@@H](NC(=O)[C@H]2CC3(C2)C[C@H](N2CCC(c4cnc(N5C6CCC5CN(c5cc(-c7ccccc7O)nnc5N)C6)nc4)CC2)C3)C(C)(C)C)cc1` (stereo partly drawn) [I-79, (2S,4S)-1-((2S)-2-(6-(4-(2-(3-(3-amino-6-(2-hydroxyphenyl)pyridazin-4-yl)-3,8-diazabicyclo[3.2.1]octan-8-yl)pyrimidin-5-yl)piperidin-1-yl)spiro[3.3]heptane-2-carboxamido)-3,3-dimethylbutanoyl)-4-hydroxy-N-(4-(4-methylthiazol-5-yl)benzyl)pyrrolidine-2-carboxamide], for which the Dmax at SMARCA2 [1], on SMARCA4 and at SMARCA2 [2] was under 50% in each case. Further, the DC50 on SMARCA2 [1], on SMARCA4 and at SMARCA2 [2] was over 1 µM in each case.
